Experimental data reported in patent US9717719B2, “Treatment, prevention, and reversal of alcohol-induced liver disease” (Rhode Island Hospital, priority 2006, dated 2017).
“Also recorded” adds a separate entry of the source.

Legend:
Assay type in all cases: in vivo, rat
[1] = tested on: liver mRNA levels of albumin, ASBT, GFAP, KCR, desmin, and collagen; assay: Liver cell profiling by qRT-PCR; settings: for desmin mRNA / ASBT mRNA / albumin mRNA / collagen mRNA / GFAP mRNA: relative to vehicle
Description: (§1) Adult male (˜200-250 g) Long Evans rats (Harlan Sprague Dawley, Inc., Indianapolis, Ind.) were pair-fed with isocaloric liquid diets (BioServ, Frenchtown, N.J.) containing 0% (control) or 37% ethanol by caloric content (9.2% v/v) for 8 weeks. During the week prior to initiating the experiment, rats were adapted to the ethanol-containing diets by sequentially feeding them for two days each with diets containing 8%, 17%, 24%, and then 37% ethanol. Chow fed control rats were also studied. Rats were monitored daily to ensure equivalent food consumption and maintenance of body weight. During the last 3 weeks of the experiment while being maintained on either the 0% or 37% ethanol-containing liquid diets, rats in both groups were administered twice weekly (Mondays and Thursdays) intra-peritoneal (i.p.) injections of vehicle (saline), a PPAR-α (GW7647; 25 μg/kg), PPAR δ (L-165,041; 2 μg/kg), or PPAR-γ (F-L-Leu; 20 μg/kg) agonist (CalBiochem, Carlsbad, Calif.). At the conclusion of the experiment, rats were anesthetized with vaporized isofluorane (SurgiVet, Inc. Waukesha, Wis.), and liver and blood were harvested for analysis. Liver tissue samples were immersion fixed in Histochoice (Amresco Corp., Solon, Ohio) and embedded in paraffin. Adjacent histological sections were stained with Hematoxylin and Eosin or Gomori's Trichrome and examined under code. In addition, liver tissue samples were snap-frozen in a dry ice methanol bath and then stored at −80° C. for later mRNA and protein studies. Throughout the experiment, rats were housed under humane conditions and kept on a 12-hour light/dark cycle with free access to food. All experiments were performed in accordance with protocols that conform to guidelines established by the National Institutes of Health and were approved by Institutional Animal Care and Use Committee at the Lifespan-Rhode Island Hospital.
Total RNA was extracted from liver tissue using TRIzol® reagent (Invitrogen, Carlsbad, Calif.) according to the manufacturer's protocol. RNA concentrations and purity were determined from the absorbances measured at 260 nm and 280 nm. RNA (2 μg) was reverse transcribed using the AMV First Strand cDNA synthesis kit (Roche Diagnostics Corporation, Indianapolis, Ind.) and random oligodeoxynucleotide primers. Quantitative reverse transcriptase polymerase chain reaction (qRT-PCR) assays were used to measure steady-state levels of specific mRNA transcripts. PCR amplifications were performed in 20 μl reactions containing cDNA generated from 2.5 ng of original RNA template, 300 nM each of gene specific forward and reverse primer (Table 2), and 10 μl of 2× QuantiTect SYBR Green PCR Mix (Qiagen Inc, Valencia, Calif.). The amplified signals were detected continuously with the Mastercycler ep realplex instrument and software (Eppendorf AG, Hamburg, Germany). The amplification protocol used was as follows: initial 15-minutes denaturation and enzyme activation at 95° C., 45 cycles of 95° C.×15 sec, 55°-60° C.×30 sec, and 72° C.×30 sec. Annealing temperatures were optimized using the temperature gradient program provided with the Mastercycler ep realplex software.
In preliminary studies, SYBR Green-labeled PCR products were evaluated by agarose gel electrophoresis, and authenticity was verified by nucleic acid sequencing. Complementary (c) DNAs were cloned into PCR-II vectors (Invitrogen, Carlsbad, Calif.). […] Serial dilutions of recombinant plasmid DNA containing target sequences were used as standards in PCR reactions, and regression lines generated from the Ct values of the standards were used to calculate mRNA abundance. Relative mRNA expression was expressed as the ng ratio of specific mRNA to ribosomal (r) 18S measured in the same samples because 18S is highly abundant and the levels are not modulated with disease state. Statistical comparisons were made using the calculated mRNA/18S ratios. […]

[2] = tested on: Long-Evans male rats fed a 37% ethanol liquid diet; assay: Liver regeneration by BrdU incorporation after 2/3 partial hepatectomy in chronic ethanol fed rats; settings: for liver regeneration (BrdU incorporation): after 2/3 hepatectomy; for increase in BrdU labeling: 24 hours after 2/3 hepatectomy, compared to ethanol fed animals
Procedure: An isocaloric (sucrose substituted for ethanol) diet was administered to pair fed control animals. After three weeks, both groups of rats were injected with either PPAR-α, γ, or δ agonists or saline as a control. […] The […] were given IP injections twice a week. At 6 weeks, the animals underwent 2/3 partial hepatectomy. The removed liver was used for histology, measurement of lipid peroxidation, DNA damage and insulin/IGF signaling as described below. Following ⅔ hepatectomy, the liver remnants were harvested 18, 24, 30 and 48 hours later to assess the regenerative response. To do this, animals were injected IP with BrdU 2 hours before harvest to measure its incorporation into hepatic nuclei as an index of DNA synthesis.

IGF-II receptor = assay: Saturation binding assay in liver of treated rats, IGF-II receptor binding; settings: pooled liver of 8 rats
Description: as §1
Saturation binding studies were used to determine if the PPAR agonist treatments improved ethanol-impaired insulin and IGF receptor binding in liver. Fresh frozen liver tissue was homogenized in 5 volumes of lysis buffer containing 50 mM Tris-HCl, pH 7.5, 1% NP-40, 150 mM NaCl, 1 mM EDTA, 2 mM EGTA, plus protease (1 mM PMSF, 0.1 mM TPCK, 1 μg/ml aprotinin, 1 μg/ml pepstatin A, 0.5 μg/ml leupeptin, 1 mM NaF, 1 mM Na4P2O7) and phosphatase (2 mM Na3VO4) inhibitors. Protein concentration was determined using the bicinchoninic acid (BCA) assay (Pierce, Rockford, Ill.). Exploratory studies determined the optimum amounts of protein and concentrations of radiolabeled ligand required to achieve 20% specific binding. Insulin receptor binding was measured using 100 μg protein per assay tube. IGF-I binding assays required 25 μg protein per sample, and IGF-II receptor binding assays required 10 μg protein per reaction.
To generate the binding curse, samples from 8 rats per group were pooled in equivalent ratios and protein concentrations were adjusted to be identical for each group. For total binding, duplicate samples were incubated in 100 μl reactions containing binding buffer (100 mM HEPES, pH 8.0, 118 mM NaCl, 1.2 mM MgSO4, 8.8 mM dextrose, 5 mM KCl, 1% bovine serum albumin) and 0.0031 to 1 μCi/ml of [^125I] (2000 Ci/mmol) insulin, IGF-I, or IGF-II. For non-specific binding, duplicate samples were identically prepared but with the addition of 0.1 μM unlabeled (cold) ligand. Incubations were carried out for 16 hours at 4° C. in non-binding 96 well plates (Corning Incorporated Life Science, Lowell, Mass.). Reactions were vacuum harvested (Corning, Lowell, Mass.) onto 96-well GF/C filter plates that had been presoaked for 30 minutes in 0.33% polyethyleneimine (PEI) solution. The filters were washed 5 times with buffer containing 50 mM buffer [4-2-hydroxyethyl)-1-piperazine-ethanesulfonic acid (HEPES), pH 7.4, 500 mM NaCl, and 0.1% BSA. […]

[3] = control livers, relative to vehicle (not statistically significant)
[4] = ethanol-exposed livers, relative to vehicle (statistically significant)

Compound | desmin mRNA ([1]; control group) | ASBT mRNA ([1]; control livers) | albumin mRNA ([1]; control livers) | KCR mRNA [1, 3] | collagen mRNA ([1]; controls) | desmin mRNA ([1]; ethanol-exposed livers) | KCR mRNA [1, 4] | ASBT mRNA ([1]; ethanol-fed rats) | albumin mRNA ([1]; ethanol-fed rats) | collagen mRNA ([1]; ethanol-fed rats) | liver regeneration (BrdU incorporation) [2] | BMAX ± S.E.M. (IGF-II receptor; Control + agonist) | BMAX ± S.E.M. (IGF-II receptor; Ethanol + agonist) | GFAP mRNA ([1]; control rats) | GFAP mRNA ([1]; ethanol-exposed rats) | increase in BrdU labeling [2]
CCCc1c(OCCCOc2ccc(OCC(=O)O)cc2)ccc(C(C)=O)c1O [PPAR-δ, L-165,041] | significantly reduced | decreased | significantly increased | increased | increased | no significant effect | increased | did not significantly alter; also recorded: normalized | significantly increased; also recorded: normalized | significantly reduced | essentially restored liver regeneration to levels seen in normal control animals; also recorded: returns the liver regenerative response to normal levels; also recorded: more modest beneficial effects | 29.01 ± 1.99 | 51.50 ± 13.53 |  |  | 
CC(C)(Sc1ccc(CCN(CCCCC2CCCCC2)C(=O)NC2CCCCC2)cc1)C(=O)O [PPAR-α, GW7647] |  |  |  | increased | increased | no significant effect | increased | significantly increased; also recorded: normalized | significantly increased; also recorded: normalized | further increased | more modest beneficial effects | 40.27 ± 3.28 | 28.88 ± 6.20 | significantly increased | significantly increased | approximately 20%
CC(C)C[C@H](NC(=O)OCC1c2ccccc2-c2ccccc21)C(=O)O [PPAR-γ, F-L-Leu] | significantly reduced | decreased | significantly increased | increased |  | significantly increased | increased | did not significantly alter | did not significantly alter | significantly reduced |  | 25.20 ± 2.04 | 22.56 ± 4.43 |  | significantly increased | approximately 20%
